Activity calls are given as the source filed them. The rule behind the calls is not given here.
Assays:
[1] = target: PAS domain-containing serine/threonine-protein kinase (Homo sapiens) (UniProt Q96RG2); assay: Inhibition of recombinant human PASK at 10 uM relative to control
[2] = target: Cytoplasmic tyrosine-protein kinase BMX (Homo sapiens) (UniProt P51813); assay: Inhibition of N-terminal his6-tagged recombinant human BMX expressed in baculovirus Sf21 insect cells at 10 uM relative to control
[3] = test system: Jurkat; assay: Antiproliferative activity against human Jurkat cells assessed as growth inhibition incubated for 72 hrs by celltiter-glo assay; assay type: functional
[4] = test system: RPMI-8226; assay: Antiproliferative activity against human RPMI-8226 cells assessed as growth inhibition incubated for 72 hrs by celltiter-glo assay; assay type: functional
[5] = test system: HT-1080; assay: Antiproliferative activity against human HT-1080 cells assessed as growth inhibition incubated for 72 hrs by celltiter-glo assay; assay type: functional
[6] = test system: COLO 205; assay: Antiproliferative activity against human COLO 205 cells assessed as growth inhibition incubated for 72 hrs by celltiter-glo assay; assay type: functional
[7] = test system: SW480; assay: Antiproliferative activity against human SW480 cells assessed as growth inhibition incubated for 72 hrs by celltiter-glo assay; assay type: functional
[8] = test system: Calu-3; assay: Antiproliferative activity against human Calu-3 cells assessed as growth inhibition incubated for 72 hrs by celltiter-glo assay; assay type: functional
[9] = test system: NCI-H522; assay: Antiproliferative activity against human NCI-H522 cells assessed as growth inhibition incubated for 72 hrs by celltiter-glo assay; assay type: functional
[10] = test system: NCI-H727; assay: Antiproliferative activity against human NCI-H727 cells assessed as growth inhibition incubated for 72 hrs by celltiter-glo assay; assay type: functional
[11] = test system: OVCAR-3; assay: Antiproliferative activity against human OVCAR-3 cells assessed as growth inhibition incubated for 72 hrs by celltiter-glo assay; assay type: functional
[12] = test system: Panc 02.03; assay: Antiproliferative activity against human Panc 02.03 cells assessed as growth inhibition incubated for 72 hrs by celltiter-glo assay; assay type: functional
[13] = Cytotoxicity against human HUVEC cells assessed as inhibition of cell growth incubated for 72 hrs by celltiter-glo assay; assay type: toxicity, cell-based
[14] = test system: ZR-75-1; assay: Antiproliferative activity against human ZR-75-1 cells assessed as growth inhibition at 10 to 250 nmol/L incubated for 72 hrs by celltiter-glo assay; assay type: functional, cell-based; settings: dose 10-250 nmol/L
[15] = test system: ZR-75-1; assay: Growth inhibition of human ZR-75-1 cells assessed as caspase-3/caspase-7 activation at 0.1 nmol/L incubated for 5 to 7 days by […]; assay type: functional, cell-based; settings: time 5-7 day
[16] = test system: COLO 205; assay: Antitumor activity against human COLO 205 cells xenografted in Nude mouse assessed as tumor regression at 50 mg/kg, ip administered for 12 days; assay type: functional, organism-based; settings: time 12.0 day
[17] = test system: COLO 205; assay: Antitumor activity against human COLO 205 cells xenografted in Nude mouse assessed as effect on Ki67 level at 50 mg/kg, ip administered one dose every 2 day repeated for 12 days by immunohistochemistry analysis; assay type: functional, organism-based; settings: time 12.0 day
[18] = test system: COLO 205; assay: Antitumor activity against human COLO 205 cells xenografted in Nude mouse assessed as increase in pIk1 level at 50 to 100 mg/kg, ip administered one dose every 2 day repeated for 12 days by immunohistochemistry analysis; assay type: functional, organism-based; settings: dose 50-100 mg/kg, time 12.0 day
[19] = test system: COLO 205; assay: Antitumor activity against human COLO 205 cells xenografted in Nude mouse assessed as increase in pHH3 level at 50 mg/kg, ip measured at 24 hrs by immunohistochemistry analysis; assay type: functional, organism-based
[20] = test system: COLO 205; assay: Antitumor activity against human COLO 205 cells xenografted in ip dosed Nude mouse assessed as increase in pHH3 level measured at 24 to 48 hrs by […]; assay type: functional, organism-based; settings: dose 50-100 mg/kg, time 24-48 hrs
[21] = test system: A549; assay: Antiproliferative activity against human A549 cells assessed as of viable cell signal at minimum maximum cell growth incubated for 72 hrs by celltiter-glo assay relative to control; assay type: functional
[22] = test system: BT-474; assay: Antiproliferative activity against human BT-474 cells assessed as of viable cell signal at minimum maximum cell growth incubated for 72 hrs by celltiter-glo assay relative to control; assay type: functional
[23] = test system: BXPC-3; assay: Antiproliferative activity against human BXPC-3 cells assessed as of viable cell signal at minimum maximum cell growth incubated for 72 hrs by celltiter-glo assay relative to control; assay type: functional
[24] = test system: DLD-1; assay: Antiproliferative activity against human DLD-1 cells assessed as of viable cell signal at minimum maximum cell growth incubated for 72 hrs by celltiter-glo assay relative to control; assay type: functional
[25] = test system: Hep 3B2; assay: Antiproliferative activity against human Hep3B cells assessed as of viable cell signal at minimum maximum cell growth incubated for 72 hrs by celltiter-glo assay relative to control; assay type: functional
[26] = test system: MCF7; assay: Antiproliferative activity against human MCF7 cells assessed as of viable cell signal at minimum maximum cell growth incubated for 72 hrs by celltiter-glo assay relative to control; assay type: functional
[27] = test system: MDA-MB-453; assay: Antiproliferative activity against human MDA-MB-453 cells assessed as of viable cell signal at minimum maximum cell growth incubated for 72 hrs by celltiter-glo assay relative to control; assay type: functional
[28] = test system: NCI-H322M; assay: Antiproliferative activity against human NCI-H322M cells assessed as of viable cell signal at minimum maximum cell growth incubated for 72 hrs by celltiter-glo assay relative to control; assay type: functional
[29] = test system: NCI-H460; assay: Antiproliferative activity against human NCI-H460 cells assessed as of viable cell signal at minimum maximum cell growth incubated for 72 hrs by celltiter-glo assay relative to control; assay type: functional
[30] = test system: NCI-H82; assay: Antiproliferative activity against human NCI-H82 cells assessed as of viable cell signal at minimum maximum cell growth incubated for 72 hrs by celltiter-glo assay relative to control; assay type: functional
[31] = test system: OVCAR-8; assay: Antiproliferative activity against human OVCAR-8 cells assessed as of viable cell signal at minimum maximum cell growth incubated for 72 hrs by celltiter-glo assay relative to control; assay type: functional
[32] = test system: SCLC; assay: Antiproliferative activity against human SCLC cells assessed as of viable cell signal at minimum maximum cell growth incubated for 72 hrs by celltiter-glo assay relative to control; assay type: functional
[33] = test system: SK-MEL3; assay: Antiproliferative activity against human SK-MEL3 cells assessed as of viable cell signal at minimum maximum cell growth incubated for 72 hrs by celltiter-glo assay relative to control; assay type: functional
[34] = test system: A704; assay: Antiproliferative activity against human A704 cells assessed as viable cell signal at maximum growth inhibition incubated for 72 hrs by celltiter-glo assay relative to control; assay type: functional
[35] = test system: Calu-3; assay: Antiproliferative activity against human Calu-3 cells assessed as viable cell signal at maximum growth inhibition incubated for 72 hrs by celltiter-glo assay relative to control; assay type: functional
[36] = test system: LNCaP; assay: Antiproliferative activity against human LNCaP cells assessed as viable cell signal at maximum growth inhibition incubated for 72 hrs by celltiter-glo assay relative to control; assay type: functional
[37] = test system: MDA-MB-453; assay: Antiproliferative activity against human MDA-MB-453 cells assessed as viable cell signal at maximum growth inhibition incubated for 72 hrs by celltiter-glo assay relative to control; assay type: functional
[38] = test system: NCI-H322M; assay: Antiproliferative activity against human NCI-H322M cells assessed as viable cell signal at maximum growth inhibition incubated for 72 hrs by celltiter-glo assay relative to control; assay type: functional
[39] = test system: RKO; assay: Antiproliferative activity against human RKO cells assessed as viable cell signal at maximum growth inhibition incubated for 72 hrs by celltiter-glo assay relative to control; assay type: functional
[40] = test system: U-87 MG; assay: Antiproliferative activity against human U-87 MG cells assessed as viable cell signal at maximum growth inhibition incubated for 72 hrs by celltiter-glo assay relative to control; assay type: functional, U-87MG ATCC

Cytoplasmic tyrosine-protein kinase BMX (Homo sapiens), sequence (P51813 whole entry): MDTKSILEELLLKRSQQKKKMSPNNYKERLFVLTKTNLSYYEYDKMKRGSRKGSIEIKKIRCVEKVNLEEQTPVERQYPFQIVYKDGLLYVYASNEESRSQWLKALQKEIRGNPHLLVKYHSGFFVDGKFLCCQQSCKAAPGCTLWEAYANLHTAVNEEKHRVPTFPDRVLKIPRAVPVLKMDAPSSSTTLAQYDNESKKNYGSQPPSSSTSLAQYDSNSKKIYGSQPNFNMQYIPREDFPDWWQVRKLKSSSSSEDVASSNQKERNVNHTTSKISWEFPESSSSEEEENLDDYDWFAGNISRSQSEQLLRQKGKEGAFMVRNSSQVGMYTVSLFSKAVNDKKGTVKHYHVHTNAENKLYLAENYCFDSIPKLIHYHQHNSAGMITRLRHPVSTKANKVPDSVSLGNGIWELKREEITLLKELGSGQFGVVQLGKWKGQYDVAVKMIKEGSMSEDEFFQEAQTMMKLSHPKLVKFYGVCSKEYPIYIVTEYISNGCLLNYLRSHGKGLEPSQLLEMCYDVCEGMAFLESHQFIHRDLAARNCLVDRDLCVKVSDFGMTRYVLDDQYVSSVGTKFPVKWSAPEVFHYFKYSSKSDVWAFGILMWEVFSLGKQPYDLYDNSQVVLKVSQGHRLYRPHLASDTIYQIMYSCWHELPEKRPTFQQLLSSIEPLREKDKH
PAS domain-containing serine/threonine-protein kinase (Homo sapiens), sequence (Q96RG2 whole entry, the tested form may be a part): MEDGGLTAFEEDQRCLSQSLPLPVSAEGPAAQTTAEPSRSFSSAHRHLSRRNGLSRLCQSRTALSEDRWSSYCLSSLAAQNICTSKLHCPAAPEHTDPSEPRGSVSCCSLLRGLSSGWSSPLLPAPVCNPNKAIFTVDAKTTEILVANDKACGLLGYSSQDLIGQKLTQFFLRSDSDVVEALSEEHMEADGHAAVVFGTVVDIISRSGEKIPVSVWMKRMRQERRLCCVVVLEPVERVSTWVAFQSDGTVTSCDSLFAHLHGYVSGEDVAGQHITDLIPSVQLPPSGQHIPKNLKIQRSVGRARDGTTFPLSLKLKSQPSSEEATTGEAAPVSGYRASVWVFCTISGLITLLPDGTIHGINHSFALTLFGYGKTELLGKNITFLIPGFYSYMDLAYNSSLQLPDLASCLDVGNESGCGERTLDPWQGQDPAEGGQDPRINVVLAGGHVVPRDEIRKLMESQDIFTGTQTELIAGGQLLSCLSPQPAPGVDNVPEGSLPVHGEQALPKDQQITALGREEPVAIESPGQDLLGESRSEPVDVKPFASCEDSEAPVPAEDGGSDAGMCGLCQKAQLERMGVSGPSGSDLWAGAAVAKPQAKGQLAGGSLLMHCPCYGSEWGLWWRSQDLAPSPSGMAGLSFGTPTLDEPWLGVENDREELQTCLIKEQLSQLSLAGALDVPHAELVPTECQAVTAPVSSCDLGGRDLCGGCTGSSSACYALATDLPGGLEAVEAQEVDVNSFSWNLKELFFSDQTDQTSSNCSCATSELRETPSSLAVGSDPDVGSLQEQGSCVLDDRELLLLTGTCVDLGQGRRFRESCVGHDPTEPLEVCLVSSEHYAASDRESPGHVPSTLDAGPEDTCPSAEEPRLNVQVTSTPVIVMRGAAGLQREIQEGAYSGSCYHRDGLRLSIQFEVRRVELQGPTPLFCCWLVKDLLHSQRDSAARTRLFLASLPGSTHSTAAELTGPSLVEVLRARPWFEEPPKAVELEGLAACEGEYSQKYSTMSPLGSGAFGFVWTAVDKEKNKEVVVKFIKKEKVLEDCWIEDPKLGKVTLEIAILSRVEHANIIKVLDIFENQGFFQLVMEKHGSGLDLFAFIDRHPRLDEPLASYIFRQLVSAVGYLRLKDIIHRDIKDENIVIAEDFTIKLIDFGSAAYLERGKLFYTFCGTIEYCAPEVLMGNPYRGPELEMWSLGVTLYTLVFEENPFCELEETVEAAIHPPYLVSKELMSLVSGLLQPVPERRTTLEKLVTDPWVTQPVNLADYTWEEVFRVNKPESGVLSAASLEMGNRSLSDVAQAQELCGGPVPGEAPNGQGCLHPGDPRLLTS

SMILES: C[C@@H](Oc1cc(-n2cnc3ccc(CN4CCN(C)CC4)cc32)sc1C(N)=O)c1ccccc1C(F)(F)F [GSK-461364]
- inhibition [1]: 63%
- inhibition [2]: 57%
- GI50 [3]: 18.6 nM
- GI50 [4]: 22.5 nM
- GI50 [5]: 24.6 nM
- GI50 [6]: 14.2 nM
- GI50 [7]: 130 nM
- GI50 [8]: 35.6 nM
- GI50 [9]: 16.9 nM
- GI50 [10]: 45.2 nM
- GI50 [11]: 12.9 nM
- GI50 [12]: 20.9 nM
- IC50 at 72 h [13]: 7 nM
- Activity [14]: inactive
- Activity [15]: Active
- Activity [16]: Active
- Activity [17]: Active
- Activity [18]: Active
- Activity [19]: Active
- Activity [20]: Dose-Dependent Effect
- Emin [21]: 124.1%
- Emin [22]: 217%
- Emin [23]: 103.3%
- Emin [24]: 441.3%
- Emin [25]: 132.1%
- Emin [26]: 125.4%
- Emin [27]: 179.6%
- Emin [28]: 260.3%
- Emin [29]: 94.6%
- Emin [30]: 22.8%
- Emin [31]: 46.5%
- Emin [32]: 122%
- Emin [33]: 112.5%
- Emax [34]: 255%
- Emax [35]: 190%
- Emax [36]: 470%
- Emax [37]: 489%
- Emax [38]: 611%
- Emax [39]: 456%
- Emax [40]: 632%
